Laboratory results published in the METLIN SMRT retention time set (Domingo-Almenara et al. 2019).

Experiment: gradient 5% acetonitrile 3 min, to 50% in 2 min, to 85% in 15 min, held 3 min, 100 µL/min
Details: column: Zorbax Extend-C18 2.1 x 50 mm; eluents: water / acetonitrile, 0.1% formic acid
Procedure, shortened: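 The system's dead and dwell volumes were 40 μL and 900 μL, with a Zorbax Extend-C18 column (2.1 × 50 mm, 1.8 μm) run at 100 μL/min in water and acetonitrile containing 0.1% formic acid each. Pure standards were analyzed in mixtures of ~100 molecules by HPLC–quadrupole time-of-flight mass spectrometry in positive and negative ionization mode. Retention time was assigned from computationally picked, manually inspected adduct peaks.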

| SMILES | RP-LC retention time [s] |
| --- | --- |
| O=C(O)CN1CCCc2c(cnn2Cc2ccccc2)C1=O | 656 |
| CC(C)CC(=O)N1CCC(Cc2nnc(-c3ccccc3)o2)CC1 | 818 |
| CCSc1nnc(-c2nn(C)c3c2CN(S(=O)(=O)c2cc(F)ccc2F)CC3)n1CC | 949 |
| CCC(=O)N1CCc2c(C(=O)NCc3ccc4c(c3)OCO4)cccc21 | 718 |
| Cc1ccccc1N1C(=O)CN(S(=O)(=O)c2ccccc2)CC1(C)C(=O)NCCC(C)C (configuration not stated) | 970 |
| Cc1ccc(-n2nc(C)c3sc(N4CCCC(C(=O)NCc5ccc(F)cc5Cl)C4)nc32)cc1 (configuration not stated) | 1220 |
| COc1ccc(NC(=O)C2CCc3nc(N4CCCCC4)ncc3C2)cc1C(F)(F)F (configuration not stated) | 894 |
| COc1ccc(NC(=O)N2CCC(c3nc(C(=O)N(C)C)c(C)o3)CC2)c(OC)c1 | 635 |
| CCn1cc(-c2nc(C(=O)Nc3cccc(C)c3)cs2)c2cccnc21 | 1130 |
| Cc1cccc(NC(=O)Nc2ccc3c(c2)CCN3S(=O)(=O)c2ccccc2)c1C | 984 |
| Fc1cccc(Cl)c1CN1CC(c2nc(C3CC3)no2)C1 | 564 |
| Cc1oc(-c2[nH]ncc2C(=O)N(C)C)cc1S(=O)(=O)NC(C)C | 600 |
| CN1c2cc(C(=O)NCc3ccncc3)ccc2C(=O)N2CCCCC21 (configuration not stated) | 586 |
| Cc1cc(Cl)ccc1NC(=O)Cn1cccc1-c1nnc(C2CC2)o1 | 904 |
| CCc1nc2onc(C)c2c(=O)n1CC(=O)NCc1ccccc1F | 792 |
| COc1ccc(-c2nc(-c3ccc4oc(C)nc4c3)no2)cc1 | 1090 |
| Cc1ccc(C(=O)NC(C)C(=O)Nc2nc3ccccc3[nH]2)cc1 (configuration not stated) | 648 |
| CCn1cc(-c2nc(C)c(C(=O)N3CCc4ccccc4C3)s2)c2cccnc21 | 987 |
| COc1cccc(Nc2nnc(CC(=O)N3CCSCC3)s2)c1 | 676 |
| O=C(C1=NN(Cc2ccccc2)c2ccccc2S1(=O)=O)N1CCCCC1 | 929 |
| Cc1cccc(Nc2c(-c3cc(Br)ccc3O)nc3ncccn23)c1 | 1020 |
| COCCCNC(=O)C1CC(=O)N(c2n[nH]c3cccc(F)c23)C1 (configuration not stated) | 638 |
| Cc1cc(CC(=O)N2CCCn3ccnc3C2C2CCCC2)on1 (configuration not stated) | 587 |

| SMILES | RP-LC retention time [s] |
| --- | --- |
| COc1ccc(NS(=O)(=O)c2ccc3c(c2)C(=O)N(C)c2ncccc2O3)cc1Cl | 918 |
| CCOC(=O)Cc1ccc(NC(=O)NC2CCN(c3ccc(C)cc3)C2=O)cc1 (configuration not stated) | 784 |
| CCCCN1C(=O)CC2CCOC21C (configuration not stated) | 753 |
| CC(=O)N1CCc2cc(N3CC(C(=O)Nc4ccccc4C(F)(F)F)CC3=O)ccc21 (configuration not stated) | 710 |
| O=c1n(Cc2cccc(C(F)(F)F)c2)nc2c(S(=O)(=O)N3CCc4ccccc4C3)cccn12 | 1010 |
| COc1ccc(NC(=O)Cn2nc3n(c2=O)CCCCC3)cc1Cl | 692 |
| Cc1nc(C2(C)CCN(S(=O)(=O)c3ccc(Cl)cc3C)CC2)no1 | 1040 |
| O=C1C2N=NN(Cc3nc(-c4cccc(C(F)(F)F)c4)no3)C2C(=O)N1c1ccc2c(c1)CCC2 (configuration not stated) | 1170 |
| CCN1CCN(CCCNC(=O)c2noc(C)c2Cn2nc(C)cc2C)CC1 | 572 |
| Cc1ccc(N2CCC(NC(=O)Cc3cccc(F)c3)C2=O)cc1 (configuration not stated) | 829 |
| O=S(=O)(Cc1ccccc1Cl)N(CCc1cccs1)Cc1ccco1 | 1080 |
| N#Cc1ccccc1CN1CCC2(CCC2N2CCOCC2)CC1 (configuration not stated) | 690 |
| O=C(Nc1cccc(C(F)(F)F)c1)N1CCN(c2cnn3c(C4CC4)nnc3c2)CC1 | 629 |
| CN(CCNC(=O)CCC(=O)N1CCc2c(c(C(=O)N3CCCC3)nn2C)C1)C1CCCCC1 | 590 |
| COc1ccc(Cl)cc1NC(=O)Nc1ccc2c(c1)CN(C(=O)C1CC1)CC2 | 871 |
| Cc1nnc2ccc(-c3noc(-c4ccc(Cl)cc4)n3)cn12 | 959 |
| Cc1nc(-c2cc(S(=O)(=O)N3CCC(C(=O)NCc4cccs4)CC3)c(C)s2)no1 | 882 |
| CC(C)CNC(=O)C1CCN(c2cnc(N3CCCCCC3)nc2)CC1 | 716 |
| COC(=O)c1ccc(C(=O)N(Cc2ccccn2)Cc2ccco2)cc1 | 650 |
| O=C(Nc1ccc(OCc2nnc(-c3ccccc3)o2)cc1)c1cnccn1 | 832 |
| COc1ccc(N2CC(c3noc(-c4cc(OC)cc(OC)c4)n3)CC2=O)cc1 (configuration not stated) | 959 |
| Cc1ccc(C)c(S(=O)(=O)N2C[C@@H](F)C[C@H]2C(=O)N2CCCCC2)c1 | 856 |
| Cc1ccc(Cn2nccc2NC(=O)c2cc(=O)c3ccccc3o2)cc1 | 816 |

| SMILES | RP-LC retention time [s] |
| --- | --- |
| c1ccc(CNc2nc(-c3ccncc3)nc3c2CCC3)nc1 | 555 |
| Cc1noc(C)c1-c1ccc(S(=O)(=O)N2CCCC2)cc1 | 951 |
| O=C(Cn1nc2c3ccc(F)cc3ncn2c1=O)NCc1ccc(F)cc1 | 668 |
| CCSc1nc2ccc(NS(=O)(=O)c3ccccc3)cc2s1 | 997 |
| CCN(CC)C(=O)Cn1c(=O)c2cnc(-c3ccc(Cl)cc3)nc2n(CC)c1=O | 740 |
| COCC(=O)Nc1nc(-c2ccc3c(c2)N(C)C(=O)C(C)O3)cs1 (configuration not stated) | 770 |
| Cc1cccc(NC(=O)Cn2c(=O)n(-c3ccccc3)c3ncccc32)c1C | 832 |
| Cn1ncc2c3ccccc3n(CCCC(=O)NCCCN3CCOCC3)c2c1=O | 593 |
| CCc1noc(NC(C)=O)c1-c1ccc(C)c(S(=O)(=O)NCc2ccco2)c1 | 766 |
| COC(=O)c1ccc2c(=O)n(-c3cc(OC)cc(OC)c3)c(N3CCCCCC3)nc2c1 | 1220 |
| CN(C1CCC1)C1CCc2nn(Cc3ccccc3)c(=O)n2CC1 (configuration not stated) | 590 |
| Cc1nn(C(=O)C2CC2)c(C)c1Sc1ccccc1[N+](=O)[O-] | 1110 |
| Cc1nn(-c2ccccc2)c(C)c1S(=O)(=O)N1CCC(C(=O)NC2CCCC2)CC1 | 860 |
| Cc1ccsc1CN1CCC(c2nc(-c3cnccn3)n[nH]2)CC1 | 567 |
| CCN(CC)S(=O)(=O)c1ccc2c(c1)N(CC(=O)NCC1COCCO1)C(=O)C1CCCCN21 (configuration not stated) | 769 |
| Cc1ccsc1C(=O)N1CCOc2ccc(N3CCOCC3)cc2C1 | 762 |
| Cc1nn(-c2ccccc2)c(C)c1S(=O)(=O)N1CCC(C(=O)N2CCN(C)CC2)CC1 | 631 |
| O=c1c2cc3c(cc2nc(SCc2nc(-c4ccc(F)cc4)no2)n1CC1CCCO1)OCO3 (configuration not stated) | 1130 |
| CCNC(=O)CCc1nc2ccccc2n(CC(=O)Nc2ccc(OC)c(OC)c2)c1=O | 658 |
| CCOc1ccc(C(=O)NCc2noc(-c3cccc(Cl)c3)n2)cc1 | 963 |
| CN(C)S(=O)(=O)N(CC(=O)Nc1ccccc1C(F)(F)F)c1ccccc1 | 972 |
